Our source for the GI50 and TGI values is PubChem BioAssay (NCI).

The structures appear in SMILES notation. Where “and” joins values, the source holds several entries; their conditions need not be identical. Identical values can stand only once.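 Results reflect a 48-hour exposure of cells in 96-well plates to compound at five concentrations. Abbreviation: GI50, concentration required for 50% inhibition of growth. Definition used: TGI = concentration required for complete inhibition of growth.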 *1 amine or outer side, *2 acyl side, *3 side chain or, on linkers, in order; H or OH if unused. Where a SMILES comes first, the peptide text is derived from it. Bridges are numbered along the chain shown (N, C = ends). [ ]: non-standard residue; d: D form. The star is where a group is joined. Phe(3,5-F2) = N[C@@H](Cc1cc(F)cc(F)c1)C(=O)O; Pro(4R-Me) = C[C@H]1CN[C@H](C(=O)O)C1; aThr = C[C@H](O)[C@H](N)C(=O)O; Pip = O=C(O)[C@@H]1CCCCN1; X10 = Fc1cc(C2CC2)ccc1N*; CO = O=C([*:1])[*:2] Some results are limits rather than exact numbers.

The test system of the experiment is MDA-MB-468 breast. As to the kind of experiment: NCI tumour cell line growth inhibition, 48 h.
For `CN1CCCCC1CCN1c2ccccc2Sc2ccc(Cl)cc21` (stereo not given), the GI50 was 1940 nM and the TGI worked out at 4.44 µM. As to `CN(C)c1ccc(/C=C\C2=[N+](C)c3ccccc3C2(C)C)cc1`, the GI50 is 287 nM and the TGI was 5.08 µM. In the same order, the values of `COc1ccc2c(c1)sc1nc(-c3ccccc3)c(-c3cccc4ccccc34)n12` are 1470 nM and 5.05 µM. In the same order, the values of `Cc1cc(-c2nc(C(=O)Nc3cc4oc(N5CCOCC5)nc4nc3N3CC[C@@H](O)C3)co2)ccn1` are 13300 nM and 64.8 µM.

For `COC(=O)/C=C1\S/C(=N\NC(=O)c2cc3ccc2/C=C\c2ccc(cc2)/C=C\3)N(c2ccccc2)C1=O`, the GI50 was 1840 nM and the TGI was 3.74 µM. On to `COc1cccc(C2c3cc4c(cc3OC(C)(N3CCCC3)C2C)OCO4)c1O` (stereo not given), for which the GI50 is 4660 nM and the TGI was above 100 µM. In the same order, the values of `COc1cccc(-c2cc(-c3cccc(NS(C)(=O)=O)c3)nc(N)c2C#N)c1O` are 421 nM and 4.23 µM.

As for `COc1cc(/C=N\NC(=O)CN2CCN(c3cc4c(cc3F)c(=O)c(C(=O)N/N=C/c3cc(OC)c(OC)c(OC)c3)cn4C3CC3)CC2)cc(OC)c1OC`, the GI50 was 221 nM and the TGI is 0.535 µM.

Consider `Cn1cc(C2=C(c3c4n(c5ccccc35)CCCCC4)C(=O)NC2=O)c2ccccc21`, for which the GI50 was 1170 nM and the TGI is above 19.9 µM.

For the compound `FC(F)(F)c1cccc(Nc2nc(-c3ccccc3)nc3ncccc23)c1`, the GI50 was 2420 nM and the TGI amounted to 7.71 µM. On the same counts, the results for `COc1ccc([C@H]2[C@H](O)C(=O)N2c2cc(OC)c(OC)c(OC)c2)cc1F` are below 10 nM and above 100 µM. Turning to `Nc1c(C(=O)c2cccc(CCS(N)(=O)=O)c2)cnn1-c1ccc(F)cc1`, the GI50 was above 17700 nM and the TGI was above 25 µM. In the same order, the values of `O=C(Nc1ccc(-n2ccc3c(NC(=O)c4ccccc4)nccc32)cc1)c1ccc(Cl)c(C(F)(F)F)c1` are 919 nM and 5.65 µM.

In the case of `Cc1ccc(CN2CCC(C(=O)Nc3ccc(-c4cc5ccccc5[nH]4)cc3)CC2)o1`, the GI50 was 83400 nM and the TGI is above 100 µM. On the same counts, the results for `OCc1cc2ccccc2c2c3c(ccc12)OCO3` are 18900 nM and 65.1 µM. On to `C=CCO[C@H]1CO[C@H]2[C@@H]1OC[C@@H]2Oc1ccc(Nc2ccnc(Nc3ccc(O[C@H]4CO[C@H]5[C@@H]4OC[C@@H]5OCC=C)c(Cl)c3)n2)cc1Cl`, for which the GI50 is 1620 nM and the TGI turned out to be 3.13 µM. On the same counts, the results for `O=C1NC(=NCCc2cccc(F)c2)S/C1=C\c1ccc2ncccc2c1` are 1180 nM and above 20.4 µM. In the same order, the values of `COC1/C=C/OC2(C)Oc3c(C)c(O)c4c(O)c(c(/C=N/Nc5ccc([N+](=O)[O-])cc5[N+](=O)[O-])c(O)c4c3C2=O)NC(=O)C(C)=C/C=C/C(C)C(O)C(C)C(O)C(C)C(OC(C)=O)C1C` (stereo not given) are 1110 nM and 2.86 µM. In the same order, the values of `CCN1/C(=C\c2cc[n+](CC)c3ccccc23)C=Cc2ccccc21` are 109 nM and 0.519 µM. Take `OC1CSSC1Cn1cnc2c(Nc3ccc(OCc4cccc(F)c4)c(Cl)c3)ncnc21` (stereo not given): the GI50 is 786 nM and the TGI turned out to be 2.12 µM.

With `COc1cc2c(c(OC)c1OC)-c1ccc(NNC(N)=S)c(=O)cc1[C@@H](NC(C)=O)CC2`, the GI50 is 233 nM. As for `C[C@@H]1C[C@H]2C(=O)O[C@@H](C)[C@H](NC(=O)[C@H](Cc3cc(F)cc(F)c3)NC(=O)Nc3ccc(C4CC4)cc3F)C(=O)N3CCC[C@H]3C(=O)N3CCCC[C@H]3C(=O)N[C@@H](C)C(=O)N2C1` ({X10-CO}-[Phe(3,5-F2)][aThr]P[Pip]A[Pro(4R-Me)]; ester 2-C), the GI50 was 25.7 nM and the TGI came out at 0.187 µM.

`O=C(Nc1ccc(F)cc1)Nc1ccc(Cl)c([N+](=O)[O-])c1`: the GI50 is 2150 nM and the TGI was 7.54 µM. Consider `C=CC(=O)Nc1cc(Nc2ncc(C(=O)OC(C)C)c(-c3cn(C)c4ccccc34)n2)c(OC)cc1N(C)CCN(C)C`, for which the GI50 is below 10 nM and the TGI is 0.069 µM.

Take `Cc1ccnc2c1ccc1c(C)ccnc12`: the GI50 was 360 nM and the TGI was 2.72 µM. For the compound `CC1CCc2nc[nH]c(=O)c21` (stereo not given), the GI50 is above 100000 nM and the TGI is above 100 µM.

As to `Cc1nc2sccn2c1-c1csc(Nc2ccccc2Cl)n1`, the GI50 is 719 nM and the TGI was 5.84 µM. On the same counts, the results for `Cc1ccc2c(C)c3c(ccc4ccccc43)c[n+]2c1` are 408 nM and 2.24 µM.

With `Cc1ccc(NC(=O)Nc2ccc(-c3cccnc3)cc2N2CCC(CO)CC2)cc1`, the GI50 is 2490 nM and the TGI was 7.12 µM. Consider `NS(=O)(=O)OC[C@@H]1C[C@@H](n2ccc3c(NC4CCc5ccccc54)ncnc32)C[C@@H]1O` (stereo not given in full), for which the GI50 is 1310 nM and the TGI came to 50.2 µM. On the same counts, the results for `COc1cnc2c(c1)C(=O)c1c-2n(CCCN2CCOCC2)c(=O)c2cc(F)ccc12` are 195 nM and 0.656 µM. As for `Fc1[nH]nc2ccc([C@@H]3Nc4ccc5[nH]ncc5c4[C@H]4C5CCC(C5)[C@@H]34)cc12` (stereo not given in full), the GI50 is 361 nM and the TGI is 12 µM. Consider `C[C@@H](Oc1cc(-n2cnc3ccc(CN4CCN(C)CC4)cc32)sc1C(N)=O)c1ccccc1C(F)(F)F`, for which the GI50 was < 10 nM and 4 nM; the TGI was 1.4 µM and 2.87 µM.
